From ChEMBL document CHEMBL5150076, “Discovery of Novel Orally Bioavailable Triazoles with Potent and Broad-Spectrum Antifungal Activity In Vitro and In Vivo” (J Med Chem, 2022)
Converted amounts (≈) assume the structure as drawn. The source made the active and inactive calls. The rule behind the calls is not given here.

Experiments:
[1] = biological target: T1, Lanosterol 14-alpha demethylase (Candida albicans (strain SC5314 / ATCC MYA-2876) (Yeast), UniProt P10613); test: Inhibition of CYP51 in Candida albicans SC5314 assessed as lanosterol level at 0.0625 ug/ml measured after 12 hrs by GC-MS analysis (reference value: 2.18%); parameters: scale not given: the % may be the effect or the level left; settings: dose 0.0625 µg/ml
[2] = system: Candida parapsilosis; test: Antifungal activity against Candida parapsilosis 660; assay type: functional; settings: Lodderomyces parapsilosis
[3] = Cytotoxicity against HUVEC assessed as cell viability at 64 ug/ml incubated for 24 hrs by CCK-8 assay; assay type: toxicity, cell-based; settings: human, HUVEC cells, dose 64 µg/ml, read-out: Activity
[4] = Induction of drug resistance in Candida albicans SC5314 assessed as increase in MIC after 2 weeks (reference value: 0.008 microg/ml); assay type: functional; settings: SC5314, 336 h
[5] = system: Candida albicans; test: Antifungal activity against Candida albicans SC5314 infected in ICR mouse assessed as delay in mortality at 0.25 to 0.5 mg/kg, po qd infected with fungus for 2 hrs prior to compound addition for 7 days and measured for 20 days; assay type: functional, organism-based; settings: dose 0.25-0.5 mg/kg, time 20.0 day
[6] = Cmax in Sprague-Dawley rat at 5 mg/kg, po by LC-MS analysis; assay type: ADME, organism-based; parameters: dose 5 mg/kg, route po; settings: in vivo
[7] = system: Candida albicans; test: Antifungal activity against Candida albicans Y0109; assay type: functional
[8] = system: [Candida] auris; test: Antifungal activity against Candida auris D12; assay type: functional; settings: Candidozyma auris
[9] = system: Cryptococcus neoformans; test: Antifungal activity against Cryptococcus neoformans H99 infected in ICR mouse assessed as median survival time at 5 mg/kg, po qd infected with fungus for 2 hrs prior to compound addition for 7 days and measured for 20 days; assay type: functional; settings: time 20 day
[10] = system: Candida albicans; test: Antifungal activity against Candida albicans 12#; assay type: functional
[11] = system: Candida albicans; test: Inhibition of biofilm formation in Candida albicans SC5314; assay type: functional, organism-based; settings: dose 0.002-0.5 µg/ml, DDE = dose-dependent effect
[12] = system: Trichophyton rubrum; test: Antifungal activity against Trichophyton rubrum cmccftla; assay type: functional
[13] = system: Candida albicans; test: Antifungal activity against Candida albicans 20#; assay type: functional
[14] = system: Nakaseomyces glabratus; test: Antifungal activity against Candida glabrata 537; assay type: functional
[15] = system: Candida tropicalis; test: Antifungal activity against Candida tropicalis ATCC750; assay type: functional
[16] = system: Aspergillus fumigatus; test: Antifungal activity against Aspergillus fumigatus 7544 infected in ICR mouse assessed as survival rate at 60 mg/kg, po qd infected with fungus for 2 hrs prior to compound addition for 7 days and measured for 20 days; assay type: functional; settings: time 20 day
[17] = system: Aspergillus fumigatus; test: Antifungal activity against Aspergillus fumigatus 7544 infected in ICR mouse assessed as survival rate at 20 mg/kg, po qd infected with fungus for 2 hrs prior to compound addition for 7 days and measured for 20 days; assay type: functional; settings: time 20 day
[18] = system: Pichia kudriavzevii; test: Antifungal activity against Candida krusei 397; assay type: functional
[19] = biological target: T1, Lanosterol 14-alpha demethylase; test: Inhibition of CYP51 in Candida albicans SC5314 assessed as eburicol level at 0.0625 ug/ml measured after 12 hrs by GC-MS analysis (reference value: 0.00%); parameters: scale not given: the % may be the effect or the level left; settings: dose 0.0625 µg/ml
[20] = system: Cryptococcus neoformans; test: Antifungal activity against Cryptococcus neoformans H99 incubated for 72 hrs by microbroth dilution method; assay type: functional
[21] = system: Candida albicans; test: Inhibition of biofilm formation in Candida albicans SC5314 at 0.0625 ug/ml relative to control; assay type: functional
[22] = AUC(0 to infinity) in Sprague-Dawley rat at 5 mg/kg, po by LC-MS analysis; assay type: ADME, organism-based; parameters: time infinity, dose 5 mg/kg, route po; settings: in vivo
[23] = system: [Candida] auris; test: Antifungal activity against Candida auris BS12372; assay type: functional; settings: Candidozyma auris
[24] = system: Candida albicans; test: Antifungal activity against Candida albicans 14#; assay type: functional
[25] = biological target: T1, Lanosterol 14-alpha demethylase; test: Inhibition of CYP51 in Candida albicans SC5314 assessed as ergosterol level at 0.0625 ug/ml measured after 12 hrs by GC-MS analysis (reference value: 72.58%); parameters: scale not given: the % may be the effect or the level left; settings: dose 0.0625 µg/ml
[26] = system: Candida albicans; test: Inhibition of biofilm formation in Candida albicans SC5314 at 0.002 ug/ml relative to control; assay type: functional
[27] = system: Candida albicans; test: Antifungal activity against Candida albicans 25#; assay type: functional
[28] = Induction of drug resistance in Candida albicans SC5314 assessed as increase in MIC after 26 days (reference value: 0.0313 microg/ml); assay type: functional; settings: SC5314, 624 h, time 26 day
[29] = AUC(0 to infinity) in Sprague-Dawley rat at 2 mg/kg, iv by LC-MS analysis; assay type: ADME, organism-based; parameters: time infinity, dose 2 mg/kg, route iv; settings: in vivo
[30] = system: Cryptococcus neoformans; test: Antifungal activity against Cryptococcus neoformans H99 infected in ICR mouse assessed as median survival time at 0.5 mg/kg, po qd infected with fungus for 2 hrs prior to compound addition for 7 days and measured for 20 days; assay type: functional; settings: time 20 day
[31] = system: Cryptococcus neoformans; test: Antifungal activity against Cryptococcus neoformans H99 infected in ICR mouse assessed as median survival time at 1 mg/kg, po qd infected with fungus for 2 hrs prior to compound addition for 7 days and measured for 20 days; assay type: functional; settings: time 20 day
[32] = system: Candida albicans; test: Antifungal activity against Candida albicans SC5314 incubated for 24 hrs by microbroth dilution method; assay type: functional
[33] = system: Candida albicans; test: Antifungal activity against Candida albicans 28#; assay type: functional
[34] = system: Candida albicans; test: Antifungal activity against Candida albicans 100 infected in ICR mouse assessed as median survival time at 0.25 mg/kg, po qd infected with fungus for 2 hrs prior to compound addition for 7 days and measured for 20 days; assay type: functional; settings: time 20 day
[35] = system: Cryptococcus neoformans; test: Antifungal activity against Cryptococcus neoformans H99 infected in po dosed ICR mouse assessed as increase in survival infected with fungus for 2 hrs prior to compound addition for 7 days and measured for 20 days; assay type: functional, organism-based; settings: dose 0.5-5 mg/kg, time 20.0 day, DDE = dose-dependent effect
[36] = Oral bioavailability in Sprague-Dawley rat at 5 mg/kg by LC-MS analysis; assay type: ADME, organism-based; settings: in vivo
[37] = Tmax in Sprague-Dawley rat at 5 mg/kg, po by LC-MS analysis; assay type: ADME, organism-based; settings: in vivo
[38] = system: Candida albicans; test: Antifungal activity against Candida albicans 162; assay type: functional
[39] = system: [Candida] auris; test: Antifungal activity against Candida auris 887; assay type: functional; settings: Candidozyma auris
[40] = system: Candida parapsilosis; test: Antifungal activity against Candida parapsilosis 700; assay type: functional; settings: Lodderomyces parapsilosis
[41] = system: Nakaseomyces glabratus; test: Antifungal activity against Candida glabrata ATCC2001; assay type: functional
[42] = system: Aspergillus fumigatus; test: Antifungal activity against Aspergillus fumigatus 7544 incubated for 48 hrs by microbroth dilution method; assay type: functional
[43] = system: Pichia kudriavzevii; test: Antifungal activity against Candida krusei 463; assay type: functional
[44] = Half life in Sprague-Dawley rat at 5 mg/kg, po by LC-MS analysis; assay type: ADME, organism-based; settings: in vivo
[45] = Half life in Sprague-Dawley rat at 2 mg/kg, iv by LC-MS analysis; assay type: ADME, organism-based; settings: in vivo
[46] = system: Candida albicans; test: Inhibition of biofilm formation in Candida albicans SC5314 at 0.5 ug/ml relative to control; assay type: functional
[47] = Clearance in Sprague-Dawley rat at 2 mg/kg, iv by LC-MS analysis; settings: in vivo
[48] = system: Aspergillus fumigatus; test: Antifungal activity against Aspergillus fumigatus 7544 infected in ICR mouse assessed as delay in mortality at 20 to 60 mg/kg, po qd infected with fungus for 2 hrs prior to compound addition for 7 days and measured for 20 days; assay type: functional, organism-based; settings: dose 20-60 mg/kg, time 20.0 day
[49] = system: Candida albicans; test: Antifungal activity against Candida albicans 100 infected in ICR mouse assessed as delay in mortality at 0.25 mg/kg, po qd infected with fungus for 2 hrs prior to compound addition for 7 days and measured for 20 days; assay type: functional, organism-based; settings: time 20.0 day

T1 sequence (P10613 whole entry): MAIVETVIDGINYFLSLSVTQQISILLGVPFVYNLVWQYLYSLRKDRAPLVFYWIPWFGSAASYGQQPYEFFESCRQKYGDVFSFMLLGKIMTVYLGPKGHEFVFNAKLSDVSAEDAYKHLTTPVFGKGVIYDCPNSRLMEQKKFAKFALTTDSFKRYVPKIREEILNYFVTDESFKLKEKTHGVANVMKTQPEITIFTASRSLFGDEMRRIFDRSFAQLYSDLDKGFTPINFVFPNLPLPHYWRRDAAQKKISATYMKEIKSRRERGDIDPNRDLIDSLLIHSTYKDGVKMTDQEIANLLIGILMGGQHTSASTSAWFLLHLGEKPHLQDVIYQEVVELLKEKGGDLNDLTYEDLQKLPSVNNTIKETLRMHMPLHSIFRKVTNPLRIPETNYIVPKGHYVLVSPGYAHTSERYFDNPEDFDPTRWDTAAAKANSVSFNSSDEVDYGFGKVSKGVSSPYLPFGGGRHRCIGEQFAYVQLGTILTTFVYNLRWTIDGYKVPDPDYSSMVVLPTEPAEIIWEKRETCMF

Compound `C[C@@H](c1cn(-c2ccc(Cl)cc2F)nn1)[C@](O)(Cn1cncn1)c1ccc(F)cc1F` has an Activity [1] of 6.46%, an MIC [2] of at most 0.0313 µg/mL and a viability at 24 h, 64 ug/ml [3] of 89.1%. The MIC [4] was 0.313 µg/mL, the Activity [5] was “Active” and the Cmax [6] was 837 ng/mL. For the same compound, the MIC [7] was 0.0156 µg/mL (≈ 0.0348 µM), the MIC [8] was 1 µg/mL (≈ 2.23 µM) and the Time [9] was 18 days. For the same compound, the MIC [10] was 16 µg/mL (≈ 35.6 µM), the inhibition [11] was “Dde” and the MIC [12] was 0.125 µg/mL (≈ 0.278 µM). It also gave an MIC [13] of at most 0.0313 µg/mL, an MIC [14] of 0.0625 µg/mL (≈ 0.139 µM) and an MIC [15] of 8 µg/mL (≈ 17.8 µM). For the same compound, the Activity [16] was 100%, the Activity [17] was 30% and the MIC [18] was 0.125 µg/mL (≈ 0.278 µM). For the same compound, the Activity [19] was 88.96%, the MIC [20] was 0.0313 µg/mL (≈ 0.0697 µM) and the inhibition at 0.0625 µg/mL [21] was 75%. For the same compound, the AUC(0-inf) [22] was 3860 ng·h/mL, the MIC [23] was 0.25 µg/mL (≈ 0.557 µM) and the MIC [24] was 8 µg/mL (≈ 17.8 µM). The Activity [25] was 0.76%, the inhibition at 0.002 µg/mL [26] was 20% and the MIC [27] was 16 µg/mL (≈ 35.6 µM). The MIC [28] was 0.125 µg/mL, the AUC(0-inf) [29] was 8410 ng·h/mL and the Time [30] was 10.5 days. It also gave a Time [31] of 14 days, an MIC [32] of 0.0625 µg/mL (≈ 0.139 µM) and an MIC [33] of at most 0.0313 µg/mL. The Time [34] was 14 days, the Activity [35] was “Dde” and the bioavailability [36] was 34%. The Tmax [37] was 2.71 h, the MIC [38] was 8 µg/mL (≈ 17.8 µM) and the MIC [39] was 1 µg/mL (≈ 2.23 µM). The MIC [40] was 0.0625 µg/mL (≈ 0.139 µM), the MIC [41] was 0.125 µg/mL (≈ 0.278 µM) and the MIC [42] was 1 µg/mL (≈ 2.23 µM). The MIC [43] was 0.125 µg/mL (≈ 0.278 µM), the half-life [44] was 1.4 h and the half-life [45] was 4.5 h. The inhibition at 0.5 µg/mL [46] was 80%, the clearance [47] was 1.99 mL/min/kg and the Activity [48] was “Active”. The Activity [49] was “Active”.
